Measurements from the NIST ThermoML archive (doi:10.1021/je060271a).
Several values for one entry are separate records, joined by “and”; a condition that tells them apart may be missing. Identical values can stand only once.

Conditions: Liquid, Vibrating tube method

CCCCC(=O)OCC(COC(=O)CCCC)(COC(=O)CCCC)COC(=O)CCCC [pentaerythritol tetrapentanoate]
Conditions | mass density
343.14 K, 22204 kPa | 994.9 kg/m3
343.14 K, 22235 kPa | 994.9 kg/m3
343.14 K, 22267 kPa | 995 kg/m3
343.14 K, 22298 kPa | 995 kg/m3
343.14 K, 22334 kPa | 995 kg/m3
343.14 K, 22365 kPa | 994.9 kg/m3
343.14 K, 22395 kPa | 994.9 kg/m3
343.14 K, 22432 kPa | 994.9 kg/m3
343.14 K, 22462 kPa | 995.1 kg/m3
343.14 K, 22494 kPa | 995 kg/m3
343.14 K, 22562 kPa | 995.1 kg/m3
343.14 K, 22594 kPa | 995 kg/m3
343.14 K, 22728 kPa | 995.2 kg/m3
343.14 K, 22766 kPa | 995.2 kg/m3
343.14 K, 22798 kPa | 995.3 kg/m3
343.14 K, 22830 kPa | 995.3 kg/m3
343.14 K, 22868 kPa | 995.3 kg/m3
343.14 K, 22901 kPa | 995.4 kg/m3
343.14 K, 22933 kPa | 995.4 kg/m3
343.14 K, 22971 kPa | 995.4 kg/m3
343.14 K, 23004 kPa | 995.4 kg/m3
343.14 K, 23038 kPa | 995.4 kg/m3
343.14 K, 23077 kPa | 995.5 kg/m3
343.14 K, 23110 kPa | 995.5 kg/m3
343.14 K, 23144 kPa | 995.4 kg/m3
343.14 K, 23177 kPa | 995.5 kg/m3
343.14 K, 23217 kPa | 995.5 kg/m3
343.14 K, 23284 kPa | 995.6 kg/m3
343.14 K, 23357 kPa | 995.6 kg/m3
343.14 K, 23391 kPa | 995.5 kg/m3
343.14 K, 23432 kPa | 995.8 kg/m3
343.14 K, 23500 kPa | 995.8 kg/m3
343.14 K, 23535 kPa | 995.9 kg/m3
343.14 K, 23577 kPa | 995.7 kg/m3
343.14 K, 23612 kPa | 995.8 kg/m3
343.14 K, 23646 kPa | 995.8 kg/m3
343.14 K, 23687 kPa | 995.8 kg/m3
343.14 K, 23722 kPa | 995.9 kg/m3
343.14 K, 23757 kPa | 995.9 kg/m3
343.14 K, 23799 kPa | 995.9 kg/m3
343.14 K, 23834 kPa | 996 kg/m3
343.14 K, 23870 kPa | 996 kg/m3
343.14 K, 23913 kPa | 996.1 kg/m3
343.14 K, 23949 kPa | 996.2 kg/m3
343.14 K, 24100 kPa | 996 kg/m3
343.14 K, 24817 kPa | 996.7 kg/m3
343.14 K, 25020 kPa | 996.6 kg/m3
343.14 K, 25061 kPa | 996.8 kg/m3
343.14 K, 25102 kPa | 996.8 kg/m3
343.14 K, 25142 kPa | 996.7 kg/m3
343.14 K, 25188 kPa | 996.9 kg/m3
343.14 K, 25228 kPa | 996.9 kg/m3
343.14 K, 25406 kPa | 996.9 kg/m3
343.14 K, 25451 kPa | 997.1 kg/m3
343.14 K, 25495 kPa | 997 kg/m3
343.14 K, 25549 kPa | 997 kg/m3
343.14 K, 25596 kPa | 997.1 kg/m3
343.14 K, 25644 kPa | 997.2 kg/m3
343.14 K, 25691 kPa | 997.1 kg/m3
343.14 K, 25745 kPa | 997.1 kg/m3
343.14 K, 25792 kPa | 997.2 kg/m3
343.14 K, 25943 kPa | 997.2 kg/m3
343.14 K, 25992 kPa | 997.3 kg/m3
343.14 K, 26041 kPa | 997.5 kg/m3
343.14 K, 26099 kPa | 997.5 kg/m3
343.14 K, 26149 kPa | 997.5 kg/m3
343.14 K, 30161 kPa | 1000.1 kg/m3
343.14 K, 32316 kPa | 1001.3 kg/m3
343.14 K, 32354 kPa | 1001.4 kg/m3
343.14 K, 32399 kPa | 1001.4 kg/m3
343.14 K, 32523 kPa | 1001.6 kg/m3
343.15 K, 106.2 kPa | 978.6 kg/m3
343.15 K, 106.4 kPa | 978.5 kg/m3 and 978.6 kg/m3
343.15 K, 106.6 kPa | 978.5 kg/m3
343.15 K, 106.7 kPa | 978.6 kg/m3
343.15 K, 106.8 kPa | 978.6 kg/m3
343.15 K, 106.9 kPa | 978.6 kg/m3
343.15 K, 107.4 kPa | 978.6 kg/m3
343.15 K, 109.5 kPa | 978.6 kg/m3
343.15 K, 114.4 kPa | 978.4 kg/m3
